Literature values as cited in PubChem BioAssay AID1259409 (Chemical Carcinogenesis Research Information System (CCRIS), 2018).

Tested on: rodent chemically induced tumor inhibition, incidence and multiplicity
Assay: CCRIS tumor inhibitor studies
Settings: Route [Inhibitor]: ORAL, Promoter: NONE USED

In the case of CC1=C(/C=C/C(C)=C/C=C/C(C)=C/C(=O)Nc2ccc(O)cc2)C(C)(C)CCC1, the “tumour outcome (control, treated, inhibition, significance)” value (Carcinogen: METHYLNITROSOUREA, 684-93-5, Dose [Inhibitor]: 0, 782 MG/KG DIET IN VEHICLE 2 MO PRIOR TO CARCINOGEN DOSE AND CONTINUED UNTIL CARCINOGEN ADMINISTRATION (STUDY DURATION, Species: RAT, Strain/Sex: CD-1/FEMALE, Target Tissue: Type of Lesion: MAMMARY GLAND: BENIGN TUMOR, Dose [Carcinogen]: 50 MG/KG BW ONCE) is listed as 10%, 14%, -40%, not calculated, the “tumour outcome (control, treated, inhibition, significance)” value (Carcinogen: N-BUTYL-N(4-HYDROXYBUTYL)NITROSAMINE, 3817-11-6, Dose [Inhibitor]: 0, 156 MG/KG DIET FOR 6 MO BEGINNING 1 WK PRIOR TO CARCINOGEN TREATMENT (STUDY DURATION: 6 MO), Species: MOUSE, Strain/Sex: BDF/MALE, Target Tissue: Type of Lesion: URINARY BLADDER: CARCINOMA, Dose [Carcinogen]: 7.5 MG IN 0.1 ML ETHANOL:WATER (20:80) 1/WK FOR 8 WK) is listed as 27/70 (39%), 31/67 (46%), -18%, not calculated and the “tumour outcome (control, treated, inhibition, significance)” value (Carcinogen: N-BUTYL-N-(4-HYDROXYBUTYL)NITROSAMINE, 3817-11-6, Dose [Inhibitor]: 0, 156 MG/KG DIET BEGINNING 1 WK PRIOR TO CARCINOGEN TREATMENT AND CONTINUING FOR DURATION OF STUDY (STUDY DURATION: 180, Species: MOUSE, Strain/Sex: BDF/MALE, Target Tissue: Type of Lesion: BLADDER: CARCINOMA, Dose [Carcinogen]: 7.5 MG IN 0.1 ML OF ETHANOL:WATER (20:80) 1/WK FOR 8 WK) is listed as 25/63 (40%), 27/70 (39%), 3%, not significant. The “tumour outcome (control, treated, inhibition, significance)” value (Carcinogen: N-BUTYL-N-(4-HYDROXYBUTYL)NITROSAMINE, 3817-11-6, Dose [Inhibitor]: 0, 313 MG/KG DIET BEGINNING 1 WK PRIOR TO CARCINOGEN TREATMENT AND CONTINUING FOR DURATION OF STUDY (STUDY DURATION: 180, Species: MOUSE, Strain/Sex: BDF/MALE, Target Tissue: Type of Lesion: BLADDER: CARCINOMA, Dose [Carcinogen]: 7.5 MG IN 0.1 ML OF ETHANOL:WATER (20:80) 1/WK FOR 8 WK) was 28/65 (43%), 20/67 (30%), 30%, not significant, the “tumour outcome (control, treated, inhibition, significance)” value (Carcinogen: N-BUTYL-N-(4-HYDROXYBUTYL)NITROSAMINE, 3817-11-6, Dose [Inhibitor]: 0, 313 MG/KG DIET FOR 6 MO BEGINNING 1 WK PRIOR TO CARCINOGEN TREATMENT (STUDY DURATION: 6 MO), Species: MOUSE, Strain/Sex: BDF/MALE, Target Tissue: Type of Lesion: URINARY BLADDER: CARCINOMA, Dose [Carcinogen]: 7.5 MG IN 0.1 ML ETHANOL:WATER (20:80) 1/WK FOR 8 WK) was 30/73 (41%), 28/67 (42%), -2%, not calculated and the “tumour outcome (control, treated, inhibition, significance)” value (Carcinogen: N-BUTYL-N-(4-HYDROXYBUTYL)NITROSAMINE, 3817-11-6, Dose [Inhibitor]: 1.5 MMOL/KG DIET DAILY FOR 153 D STARTING ONE WK AFTER THE FINAL CARCINOGEN DOSE (STUDY DURATION: 210 D), Species: MOUSE, Strain/Sex: BDF/MALE, Target Tissue: Type of Lesion: URINARY BLADDER: TRANSITIONAL CELL CARCINOMA, Dose [Carcinogen]: 7.5 MG 1/WK FOR 8 WK) was 35/99 (35%), 21/100 (21%), 40%, p<0.05. The “tumour outcome (control, treated, inhibition, significance)” value (Carcinogen: N-BUTYL-N-(4-HYDROXYBUTYL)NITROSAMINE, 3817-11-6, Dose [Inhibitor]: 1.5 MMOL/KG IN DIET FOR 153 D STARTING 1 WK AFTER LAST CARCINOGEN DOSE (STUDY DURATION: 210 D), Species: MOUSE, Strain/Sex: DBF1/MALE, Target Tissue: Type of Lesion: URINARY BLADDER: TRANSITIONAL CELL CARCINOMA, Dose [Carcinogen]: 7.5 MG 1/WK FOR 8 WK) was 35/99 (35%), 21/100 (21%), 40%, p<0.05, the “tumour outcome (control, treated, inhibition, significance)” value (Carcinogen: N-BUTYL-N-(4-HYDROXYBUTYL)NITROSAMINE, 3817-11-6, Dose [Inhibitor]: 391 MG/KG DIET STARTING 1 WK AFTER FINAL CARCINOGEN DOSE AND CONTINUING THROUGH END OF STUDY (STUDY DURATION: 205 D), Species: MOUSE, Strain/Sex: DBF1/MALE, Target Tissue: Type of Lesion: URINARY BLADDER: TRANSITIONAL CELL CARCINOMA, Dose [Carcinogen]: 7.5 MG 1/WK FOR 8 WK) was 19/50 (38%), 9/49 (18%), 53%, p<0.05 and the “tumour outcome (control, treated, inhibition, significance)” value (Carcinogen: N-BUTYL-N-(4-HYDROXYBUTYL)NITROSAMINE, 3817-11-6, Dose [Inhibitor]: 391 MG/KG IN DIET BEGINNING 1 WK AFTER FINAL CARCINOGEN DOSE AND CONTINUING THROUGH END OF STUDY (STUDY DURATION: 205 D), Species: MOUSE, Strain/Sex: DBF1/MALE, Target Tissue: Type of Lesion: URINARY BLADDER: TRANSITIONAL CELL CARCINOMA, Dose [Carcinogen]: 7.5 MG 1/WK FOR 8 WK) was 19/50 (38%), 9/49 (18%), 53%, p<0.05. The “tumour outcome (control, treated, inhibition, significance)” value (Carcinogen: N-ETHYL-N-NITROSOUREA, 759-73-9, Dose [Inhibitor]: 0, 98 MG/KG DIET FOR DURATION OF STUDY BEGINNING POST CARCINOGEN DOSE (STUDY DURATION: 35 WK), Species: MOUSE, Strain/Sex: PIM/MALE, Target Tissue: Type of Lesion: LYMPHATIC SYSTEM: LYMPHOMA, Dose [Carcinogen]: 50 MG/KG BW ONCE) was 21/40 (53%), 13/30 (43%), 19%, not significant, the “tumour outcome (control, treated, inhibition, significance)” value (Carcinogen: N-ETHYL-N-NITROSOUREA, 759-73-9, Dose [Inhibitor]: 0, 196 MG/KG DIET FOR DURATION OF STUDY BEGINNING POST CARCINOGEN DOSE (STUDY DURATION: 35 WK), Species: MOUSE, Strain/Sex: PIM/MALE, Target Tissue: Type of Lesion: LYMPHATIC SYSTEM: LYMPHOMA, Dose [Carcinogen]: 50 MG/KG BW ONCE) was 21/40 (53%), 15/29 (52%), 2%, not significant and the “tumour outcome (control, treated, inhibition, significance)” value (Carcinogen: N-ETHYL-N-NITROSOUREA, 759-73-9, Dose [Inhibitor]: 0, 391 MG/KG DIET FOR DURATION OF STUDY BEGINNING POST CARCINOGEN DOSE (STUDY DURATION: 35 WK), Species: MOUSE, Strain/Sex: PIM/MALE, Target Tissue: Type of Lesion: LYMPHATIC SYSTEM: LYMPHOMA, Dose [Carcinogen]: 50 MG/KG BW ONCE) was 21/40 (53%), 16/40 (40%), 26%, not significant.
